How the values were obtained:
Test in all cases: relative viability (nuclei count vs DMSO), 5 days (fraction); higher = more cells survive
[1] = compound: CC1=C(CC(=O)O)c2cc(F)ccc2/C1=C\c1ccc([S+](C)[O-])cc1 [Sulindac] + CS(=O)(=O)N1CCN(Cc2cc3nc(-c4cccc5[nH]ncc45)nc(N4CCOCC4)c3s2)CC1 [Pictilisib] (partner 1 µM)
Method in brief: (§1)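 Relative viability is defined as nuclei in treated wells over nuclei in vehicle wells. Duplicate plates were run and medians reported. Lung cancer cell lines in 1536-well plates were dosed by pin tool one day after seeding, with one drug or with a fixed anchor-drug dose plus five library-drug doses (not always all listed) in √10 steps, and nuclei were counted after 5 days.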

[2] = compound: O=c1[nH]cc(F)c(=O)[nH]1 [5-Fluorouracil] + CC(=O)Nc1cccc(-n2c(=O)n(C3CC3)c(=O)c3c(Nc4ccc(I)cc4F)n(C)c(=O)c(C)c32)c1 [Trametinib] (partner 0.02 µM)
Method in brief: as §1

[3] = compound: O=c1[nH]cc(F)c(=O)[nH]1 [5-Fluorouracil] + CC(=O)c1c(C)c2cnc(Nc3ccc(N4CCNCC4)cn3)nc2n(C2CCCC2)c1=O [Palbociclib] (partner 0.5 µM)
Method in brief: as §1

[4] = compound: O=c1[nH]cc(F)c(=O)[nH]1 [5-Fluorouracil] + NC(=O)Nc1cc(-c2cccc(F)c2)sc1C(=O)N[C@H]1CCCNC1 [AZD7762] (partner 0.2 µM)
Method in brief: as §1

| Cell Line | relative viability ([1]; first compound 0.08 µM) | relative viability ([1]; first compound 0.253 µM) | relative viability ([1]; first compound 0.8 µM) | relative viability ([1]; first compound 2.53 µM) | relative viability ([1]; first compound 8 µM) | relative viability ([2]; first compound 0.02 µM) | relative viability ([2]; first compound 0.2 µM) | relative viability ([2]; first compound 0.6325 µM) | relative viability ([2]; first compound 2 µM) | relative viability ([3]; first compound 0.02 µM) | relative viability ([3]; first compound 0.2 µM) | relative viability ([3]; first compound 0.6325 µM) | relative viability ([3]; first compound 2 µM) | relative viability ([4]; first compound 0.02 µM) | relative viability ([4]; first compound 0.2 µM) | relative viability ([4]; first compound 0.6325 µM) | relative viability ([4]; first compound 2 µM) |
| --- | --- | --- | --- | --- | --- | --- | --- | --- | --- | --- | --- | --- | --- | --- | --- | --- | --- |
| 201T | 0.737 | 0.665 | 0.627 | 0.678 | 0.698 | 0.715 | 0.563 | 0.305 | 0.284 | 0.376 | 0.347 | 0.294 | 0.256 | 0.51 | 0.264 | 0.197 | 0.217 |
| A549 | 0.573 | 0.528 | 0.327 | 0.467 | 0.857 |  |  |  |  |  |  |  |  |  |  |  |  |
| A-427 | 0.84 | 0.507 | 0.625 | 0.805 | 0.717 | 0.747 | 0.773 | 0.58 | 0.382 | 0.529 | 0.518 | 0.49 | 0.364 | 0.676 | 0.805 | 0.308 | 0.253 |
| ABC-1 | 0.987 | 0.849 | 0.539 | 0.542 | 0.979 |  |  |  |  | 0.749 | 0.794 | 0.883 | 0.49 | 0.754 | 0.933 | 0.722 | 0.634 |
| BEN | 0.599 | 0.56 | 0.443 | 0.673 | 0.667 | 0.934 | 0.93 | 0.946 | 0.938 | 0.443 | 0.433 | 0.472 | 0.449 | 0.791 | 0.804 | 0.606 | 0.679 |
| CAL-12T | 0.442 | 0.374 | 0.401 | 0.324 | 0.616 | 0.424 | 0.393 | 0.33 | 0.299 | 0.515 | 0.419 | 0.359 | 0.251 | 0.685 | 0.588 | 0.421 | 0.421 |
| COR-L23 | 0.987 | 0.933 |  | 0.727 | 1.07 | 0.585 | 0.631 | 0.359 | 0.275 | 0.288 | 0.315 | 0.206 | 0.144 |  |  |  |  |
| COR-L 105 | 0.392 | 0.36 | 0.36 | 0.338 | 0.489 | 0.458 | 0.505 | 0.408 | 0.393 | 0.4 | 0.438 | 0.44 | 0.427 |  |  |  |  |
| Calu-6 | 1.03 | 0.989 | 0.799 | 0.949 | 1.17 |  |  |  |  |  |  |  |  |  |  |  |  |
| ChaGo-K-1 | 0.808 | 0.645 | 0.74 | 0.647 | 1.45 | 0.934 | 0.796 | 0.691 | 0.499 | 0.958 | 0.914 | 0.803 | 0.51 | 0.883 | 0.917 | 0.609 | 0.383 |
| EBC-1 | 0.382 | 0.422 | 0.343 | 0.342 | 0.49 |  |  |  |  |  |  |  |  |  |  |  |  |
| EKVX | 0.409 | 0.487 | 0.381 | 0.475 | 0.516 | 0.326 |  | 0.187 | 0.148 |  | 0.276 |  | 0.175 | 0.322 | 0.157 | 0.145 | 0.157 |
| EMC-BAC-2 | 0.524 | 0.58 | 0.485 | 0.542 | 0.596 | 0.934 | 1.05 | 0.914 | 0.879 | 0.52 | 0.532 | 0.501 | 0.518 | 1.14 | 1.22 | 1.11 | 1.01 |
| EPLC-272H | 0.293 |  | 0.252 | 0.284 | 0.361 | 0.263 | 0.262 | 0.242 | 0.198 | 0.319 | 0.36 | 0.3 | 0.343 | 0.243 | 0.122 | 0.109 | 0.102 |
| H3255 | 0.486 | 0.463 | 0.464 | 0.562 | 0.524 | 0.664 | 0.716 | 0.687 | 0.567 | 0.291 | 0.317 | 0.305 | 0.296 | 0.98 | 0.949 | 0.696 | 0.567 |
| HARA | 0.302 | 0.507 |  | 0.374 | 0.452 | 0.852 | 0.625 | 0.856 | 0.644 | 0.305 | 0.261 | 0.267 | 0.286 | 0.411 | 0.32 | 0.4 | 0.211 |
| HCC-15 | 0.861 | 0.817 | 0.526 | 0.735 | 0.814 | 0.321 | 0.365 | 0.34 | 0.284 | 0.499 | 0.744 | 0.52 | 0.302 | 1.28 | 1.2 | 0.448 | 0.39 |
| HCC-44 | 0.403 | 0.562 | 0.537 | 0.687 | 0.589 | 1.09 | 1 | 0.692 | 0.599 | 0.971 | 0.929 | 0.823 | 0.619 | 1.01 | 0.925 | 0.733 | 0.466 |
| HCC-78 | 0.309 | 0.269 | 0.207 | 0.183 | 0.246 | 1.01 | 0.717 | 0.435 | 0.297 | 0.467 | 0.529 | 0.496 | 0.451 | 0.562 | 0.503 | 0.239 | 0.306 |
| HCC-366 | 0.149 | 0.13 |  | 0.0966 | 0.0889 | 0.332 | 0.238 | 0.14 | 0.0725 | 0.404 | 0.332 | 0.154 | 0.0646 | 0.354 | 0.308 | 0.119 | 0.0755 |
| HCC-827 | 0.922 | 1.17 | 0.823 | 0.88 | 1.06 | 0.407 | 0.544 | 0.425 | 0.276 | 0.46 | 0.455 | 0.231 | 0.255 | 0.164 | 0.178 | 0.166 | 0.147 |
| HOP-62 | 1.01 | 0.864 | 0.831 | 0.758 | 0.978 | 0.362 | 0.417 | 0.392 | 0.357 | 0.409 | 0.573 | 0.404 | 0.439 | 0.636 | 1.06 | 0.522 | 0.473 |

Source: the supplement of paper PMC10307832
